# Target: T1, cytochrome c oxidase (Saccharomyces cerevisiae, UniProt P00401+P00410)
# T1 construct: gene COX1; native complex IV in whole sulfur-starved yeast cells; not purified; with Cytochrome c oxidase subunit 3; Cytochrome c oxidase subunit 4, mitochondrial; Cytochrome c oxidase subunit 5A, mitochondrial; Cytochrome c oxidase subunit 6, mitochondrial; Cytochrome c oxidase subunit 7, mitochondrial; Cytochrome c oxidase subunit 8, mitochondrial; Cytochrome c oxidase subunit 9, mitochondrial; Cytochrome c oxidase subunit 12, mitochondrial; Cytochrome c oxidase subunit 13, mitochondrial
# Assay: oxygen consumption of whole cells with TMPD/ascorbate as electron donor
# Format: cell-based
# Conditions: 10 mM thiosulfate, 12.5 mM ascorbate, 1.4 mM TMPD, PBS, sulfur-starved cells OD600 10; CuB binding only proposed
smiles,measurement,value
O=S(O)(O)=S [thiosulfate],inhibition at 10 mM,"In the assay, thiosulfate inhibited cytochrome c oxidase (Figure 5E)"
